Test results taken from publication PMC7495477, “IMPROvER: the Integral Membrane Protein Stability Selector” (Scientific Reports, 2020).

Biological target: T1, ClPPase (membrane-bound pyrophosphatase from Clostridium leptum) ([Clostridium] leptum, UniProt A7VNH8)
T1 construct: gene hppA; N-terminal 8xHis-tag, superfolder GFP and TEV site kept; synthetic gene in pDDGFP; expressed in S. cerevisiae FGY217 membranes; about 700 residues; dimer
T1 sequence (A7VNH8 1-700): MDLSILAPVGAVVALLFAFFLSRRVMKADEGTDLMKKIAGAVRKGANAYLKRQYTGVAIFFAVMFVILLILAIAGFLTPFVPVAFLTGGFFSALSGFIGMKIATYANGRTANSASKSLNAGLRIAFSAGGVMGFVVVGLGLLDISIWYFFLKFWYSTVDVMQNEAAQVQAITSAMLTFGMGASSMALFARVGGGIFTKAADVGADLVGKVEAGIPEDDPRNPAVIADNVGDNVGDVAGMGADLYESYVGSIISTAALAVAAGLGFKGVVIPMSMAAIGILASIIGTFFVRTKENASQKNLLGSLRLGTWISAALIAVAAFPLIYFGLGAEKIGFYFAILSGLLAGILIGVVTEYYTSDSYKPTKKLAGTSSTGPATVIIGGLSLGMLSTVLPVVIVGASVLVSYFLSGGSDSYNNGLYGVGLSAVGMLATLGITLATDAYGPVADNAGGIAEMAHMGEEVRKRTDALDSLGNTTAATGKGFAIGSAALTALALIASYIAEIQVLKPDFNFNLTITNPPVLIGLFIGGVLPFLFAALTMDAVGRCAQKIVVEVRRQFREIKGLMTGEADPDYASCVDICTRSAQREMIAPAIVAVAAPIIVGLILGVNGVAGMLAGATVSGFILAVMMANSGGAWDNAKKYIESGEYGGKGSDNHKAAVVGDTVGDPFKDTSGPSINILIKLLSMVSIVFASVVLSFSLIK
Test: colorimetric phosphate release assay on yeast membranes
Assay type: biochemical
Settings: tris-HCl pH 8, MgCl2, KCl, NaCl, NaF, gramicidin, 10 uL of 2 mM tetrabasic sodium pyrophosphate in 50 uL, 30 C, 10 min

## O=P(O)(O)OP(=O)(O)O [PPi]
  colorimetric phosphate release assay on yeast membranes: The hydrolytic activity of wild-type and variant ClPPase in the membrane was assessed
